Test results reported in US8247211B2, “Glycopeptide antibiotics” (American Cyanamid Company, priority 2001, dated 2012).

Assays:
Experiment in all cases: In vitro antibacterial evaluation: minimum inhibitory concentration (MIC), broth dilution method
Type in all cases: cell-based
Details in all cases: 18 hours at 35° C.
Enterococcus sp. = system: Enterococcus sp.
In short: (§1)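 NCCLS M7-A2 broth dilution with Mueller-Hinton II, testing 64-0.06 μg/mL antibiotic against 5×10^5 CFU/mL inocula. Test strains include recent methicillin-, penicillin- or vancomycin-resistant clinical isolates. MIC is the lowest concentration preventing growth.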

Streptococcus sp. = system: Streptococcus sp.
In short: as §1

Escherichia coli = system: Escherichia coli
In short: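 Following NCCLS approved standard M7-A2, compounds are serially diluted from 64 to 0.06 μg/mL in Muller-Hinton II […] and inoculated at 5×10^5 CFU/mL; the MIC is the minimum concentration at which growth is inhibited.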

Staphylococcus sp. = system: Staphylococcus sp.
In short: as §1

Substance: α-O-[(N-Methyl-2-methylpropylamino)carbonyl]-cyclo[glycyl-β-methylphenylalanyl-O-(4-O-hexopyranosylhexopyranosyl)tyrosyl-3-(2-iminoimidazolidin-4-yl)seryl-3-(3-hexopyranosyl-2-iminoimidazolidin-4-yl)serylseryl] [Example 255]
- MIC Enterococcus avium (GC 4558) (Enterococcus sp.; Enterococcus avium (GC 4558)): >0.5 µg/mL
- MIC Enterococcus faecalis (ATCC 29212) (Enterococcus sp.; Enterococcus faecalis (ATCC 29212)): >0.5 µg/mL
- MIC Enterococcus faecalis (GC 2242) (Enterococcus sp.; Enterococcus faecalis (GC 2242)): >0.5 µg/mL
- MIC Enterococcus faecalis (GC 2691) (Enterococcus sp.; Enterococcus faecalis (GC 2691)): >0.5 µg/mL
- MIC Enterococcus faecalis (GC 3059) (Enterococcus sp.; Enterococcus faecalis (GC 3059)): >0.5 µg/mL
- MIC Enterococcus faecalis (GC 4552) (Enterococcus sp.; Enterococcus faecalis (GC 4552)): >0.5 µg/mL
- MIC Enterococcus faecalis (GC 4553) (Enterococcus sp.; Enterococcus faecalis (GC 4553)): >0.5 µg/mL
- MIC Enterococcus faecalis (GC 4554) (Enterococcus sp.; Enterococcus faecalis (GC 4554)): >0.5 µg/mL
- MIC Enterococcus faecalis (GC 6189) (Enterococcus sp.; Enterococcus faecalis (GC 6189)): >0.5 µg/mL
- MIC Enterococcus faecium (GC 2243) (Enterococcus sp.; Enterococcus faecium (GC 2243)): >64 µg/mL
- MIC Enterococcus faecium (GC 4556) (Enterococcus sp.; Enterococcus faecium (GC 4556)): >64 µg/mL
- MIC Enterococcus faecium (GC 4557) (Enterococcus sp.; Enterococcus faecium (GC 4557)): 16 µg/mL
- MIC Enterococcus faecalis (ATCC 29212) (Enterococcus sp.; broth dilution, strain ATCC 29212): >0.5 µg/mL
- MIC Enterococcus faecalis (GC 2242) (Enterococcus sp.; broth dilution, strain GC 2242): >0.5 µg/mL
- MIC Enterococcus faecium (GC 2243) (Enterococcus sp.; broth dilution, strain GC 2243): >64 µg/mL
- MIC Enterococcus faecalis (GC 2691) (Enterococcus sp.; broth dilution, strain GC 2691): >0.5 µg/mL
- MIC Enterococcus faecalis (GC 3059) (Enterococcus sp.; broth dilution, strain GC 3059): >0.5 µg/mL
- MIC Enterococcus faecalis (GC 4552) (Enterococcus sp.; broth dilution, strain GC 4552): >0.5 µg/mL
- MIC Enterococcus faecalis (GC 4553) (Enterococcus sp.; broth dilution, strain GC 4553): >0.5 µg/mL
- MIC Enterococcus faecalis (GC 4554) (Enterococcus sp.; broth dilution, strain GC 4554): >0.5 µg/mL
- MIC Enterococcus faecium (GC 4556) (Enterococcus sp.; broth dilution, strain GC 4556): >64 µg/mL
- MIC Enterococcus faecium (GC 4557) (Enterococcus sp.; broth dilution, strain GC 4557): 16 µg/mL
- MIC Enterococcus avium (GC 4558) (Enterococcus sp.; broth dilution, strain GC 4558): >0.5 µg/mL
- MIC Enterococcus faecalis (GC 6189) (Enterococcus sp.; broth dilution, strain GC 6189): >0.5 µg/mL
- MIC Streptococcus agalactiae (GC 4564) (Streptococcus sp.; Streptococcus agalactiae (GC 4564)): 32 µg/mL
- MIC Streptococcus pneumoniae (GC 4565) (Streptococcus sp.; Streptococcus pneumoniae (GC 4565)): 16 µg/mL
- MIC Streptococcus pyogenes (GC 4563) (Streptococcus sp.; Streptococcus pyogenes (GC 4563)): 16 µg/mL
- MIC Streptococcus pyogenes (GC 4563) (Streptococcus sp.; broth dilution, strain GC 4563): 16 µg/mL
- MIC Streptococcus agalactiae (GC 4564) (Streptococcus sp.; broth dilution, strain GC 4564): 32 µg/mL
- MIC Streptococcus pneumoniae (GC 4565) (Streptococcus sp.; broth dilution, strain GC 4565): 16 µg/mL
- MIC Escherichia coli (ATCC 25922) (Escherichia coli; Escherichia coli (ATCC 25922)): >0.5 µg/mL
- MIC Escherichia coli (GC 4559) (Escherichia coli; Escherichia coli (GC 4559)): >0.5 µg/mL
- MIC Escherichia coli (GC 4560) (Escherichia coli; Escherichia coli (GC 4560)): 0.5 µg/mL
- MIC Coagulase Negative Staphylococcus (GC 4547) (Staphylococcus sp.; Coagulase Negative Staphylococcus (GC 4547)): 32 µg/mL
- MIC Coagulase Negative Staphylococcus (GC 4548) (Staphylococcus sp.; Coagulase Negative Staphylococcus (GC 4548)): 64 µg/mL
- MIC Coagulase Negative Staphylococcus (GC 4549) (Staphylococcus sp.; Coagulase Negative Staphylococcus (GC 4549)): 32 µg/mL
- MIC Coagulase Negative Staphylococcus (GC 4551) (Staphylococcus sp.; Coagulase Negative Staphylococcus (GC 4551)): 64 µg/mL
- MIC Coagulase Negative Staphylococcus (GC 6257) (Staphylococcus sp.; Coagulase Negative Staphylococcus (GC 6257)): 32 µg/mL
- MIC Staphylococcus aureus (ATCC 29213) (Staphylococcus sp.; Staphylococcus aureus (ATCC 29213)): >0.5 µg/mL
- MIC Staphylococcus aureus (GC 1131) (Staphylococcus sp.; Staphylococcus aureus (GC 1131)): >0.5 µg/mL
- MIC Staphylococcus aureus (GC 3051) (Staphylococcus sp.; Staphylococcus aureus (GC 3051)): 0.5 µg/mL
- MIC Staphylococcus aureus (GC 3053) (Staphylococcus sp.; Staphylococcus aureus (GC 3053)): 0.5 µg/mL
- MIC Staphylococcus aureus (GC 4541) (Staphylococcus sp.; Staphylococcus aureus (GC 4541)): 0.5 µg/mL
- MIC Staphylococcus aureus (GC 4542) (Staphylococcus sp.; Staphylococcus aureus (GC 4542)): 0.5 µg/mL
- MIC Staphylococcus aureus (GC 4544) (Staphylococcus sp.; Staphylococcus aureus (GC 4544)): 0.5 µg/mL
- MIC Staphylococcus aureus (GC 4545) (Staphylococcus sp.; Staphylococcus aureus (GC 4545)): 0.5 µg/mL
- MIC Staphylococcus aureus-SMITH (GC 4543) (Staphylococcus sp.; Staphylococcus aureus-SMITH (GC 4543)): 0.5 µg/mL
- MIC Staphylococcus haemolyticus (GC 4546) (Staphylococcus sp.; Staphylococcus haemolyticus (GC 4546)): 32 µg/mL
- MIC Staphylococcus aureus (ATCC 29213) (Staphylococcus sp.; broth dilution, strain ATCC 29213): >0.5 µg/mL
- MIC Staphylococcus aureus (GC 1131) (Staphylococcus sp.; broth dilution, strain GC 1131): >0.5 µg/mL
- MIC Staphylococcus aureus (GC 3051) (Staphylococcus sp.; broth dilution, strain GC 3051): 0.5 µg/mL
- MIC Staphylococcus aureus (GC 3053) (Staphylococcus sp.; broth dilution, strain GC 3053): 0.5 µg/mL
- MIC Staphylococcus aureus (GC 4541) (Staphylococcus sp.; broth dilution, strain GC 4541): 0.5 µg/mL
- MIC Staphylococcus aureus (GC 4542) (Staphylococcus sp.; broth dilution, strain GC 4542): 0.5 µg/mL
- MIC Staphylococcus aureus-SMITH (GC 4543) (Staphylococcus sp.; broth dilution, strain GC 4543): 0.5 µg/mL
- MIC Staphylococcus aureus (GC 4544) (Staphylococcus sp.; broth dilution, strain GC 4544): 0.5 µg/mL
- MIC Staphylococcus aureus (GC 4545) (Staphylococcus sp.; broth dilution, strain GC 4545): 0.5 µg/mL
- MIC Staphylococcus haemolyticus (GC 4546) (Staphylococcus sp.; broth dilution, strain GC 4546): 32 µg/mL
- MIC Coagulase Negative Staphylococcus (GC 4547) (Staphylococcus sp.; broth dilution, strain GC 4547): 32 µg/mL
- MIC Coagulase Negative Staphylococcus (GC 4548) (Staphylococcus sp.; broth dilution, strain GC 4548): 64 µg/mL
- MIC Coagulase Negative Staphylococcus (GC 4549) (Staphylococcus sp.; broth dilution, strain GC 4549): 32 µg/mL
- MIC Coagulase Negative Staphylococcus (GC 4551) (Staphylococcus sp.; broth dilution, strain GC 4551): 64 µg/mL
- MIC Coagulase Negative Staphylococcus (GC 6257) (Staphylococcus sp.; broth dilution, strain GC 6257): 32 µg/mL
